Experimental data as given in ChEMBL document CHEMBL1141099, “Discovery of N-(2,6-dimethylphenyl)-substituted semicarbazones as anticonvulsants: hybrid pharmacophore-based design” (2005).

Experiments:
Rattus norvegicus [1] = test: Number of rats protected at a dose of 30 mg/Kg when given oral at 1 hr upon maximal electroshock seizure; Total number of rats = 4; format: functional
Mus musculus [2] = test: Post treatment immobility time for CNS study using Porsolt's swimpool test at a dose of 100 mg/Kg after 1 h when given i.p., in mice (No. of animals 6); Control (24h before) 190
Rattus norvegicus [3] = test: Enzymatic activity to assess the increase in level of SGOT at a dose of 30 mg/Kg for 14 days when given p.o., in 6 rats; Control 73.1; format: functional
Rattus norvegicus [4] = test: Number of rats protected at a dose of 30 mg/Kg when given oral at 2 hr upon maximal electroshock seizure; Total number of rats = 4; format: functional
Mus musculus [5] = test: Minimum dose required for anticonvulsant activity when given i.p., at 0.5 hr in mice upon subcutaneous pentylenetetrazole seizure; format: functional
Mus musculus [6] = test: Minimum dose required for anticonvulsant activity when given i.p., at 0.5 hr in mice upon subcutaneous strychnine seizure; format: functional
Rattus norvegicus [7] = organism: Rattus norvegicus; test: Ex vitro percentage inhibition activity against GABA-T enzyme at a concentration of 2.5 uM after 6 h; format: functional
Rattus norvegicus [8] = test: Effect on GABA level in rat whole brain concentration after 7 days post-treatment at a dose of 30 mg/Kg when given orally; Control 50.5; format: functional
Rattus norvegicus [9] = test: After discharge duration time when after administered in rat 2 at dose 130 mg/Kg when given i.p., upon preliminary hippocampal-kindling screen; format: functional, Hippocampus
Rattus norvegicus [10] = test: After discharge duration time when before administered in rat 1 at dose 130 mg/Kg when given i.p., upon preliminary hippocampal-kindling screen; Prodrug time 26-39 s; format: functional, Hippocampus
Rattus norvegicus [11] = test: Number of rats protected at a dose of 30 mg/Kg when given oral at 0.25 hr upon maximal electroshock seizure; Total number of rats = 4; format: functional
Rattus norvegicus [12] = test: Effective dose required for anticonvulsant activity when given orally at 4 h in rat upon maximal electroshock seizure; format: functional; conditions: po
Rattus norvegicus [13] = test: After discharge duration time when after administered in rat 1 at dose 130 mg/Kg when given i.p., upon preliminary hippocampal-kindling screen; format: functional, Hippocampus
Rattus norvegicus [14] = test: Number of rats protected at a dose of 30 mg/Kg when given oral at 0.5 hr upon maximal electroshock seizure; Total number of rats = 4; format: functional
Mus musculus [15] = test: Minimum dose required for anticonvulsant activity when given i.p., at 0.5 hr in mice upon maximal electroshock seizure; format: functional
Rattus norvegicus [16] = test: Effect on GABA level in rat whole brain concentration after 2 hr post-treatment at a dose of 100 mg/Kg when given i.p.; Control 48.4; format: functional
[17] = biological target: 4-aminobutyrate aminotransferase, mitochondrial (Rattus norvegicus) (UniProt P50554); test: In vitro percentage inhibition activity against GABA-T enzyme at a concentration of 1.25 uM after 4.5 h
4-aminobutyrate aminotransferase, mitochondrial (Rattus norvegicus), sequence (P50554 28-500 limits assumed): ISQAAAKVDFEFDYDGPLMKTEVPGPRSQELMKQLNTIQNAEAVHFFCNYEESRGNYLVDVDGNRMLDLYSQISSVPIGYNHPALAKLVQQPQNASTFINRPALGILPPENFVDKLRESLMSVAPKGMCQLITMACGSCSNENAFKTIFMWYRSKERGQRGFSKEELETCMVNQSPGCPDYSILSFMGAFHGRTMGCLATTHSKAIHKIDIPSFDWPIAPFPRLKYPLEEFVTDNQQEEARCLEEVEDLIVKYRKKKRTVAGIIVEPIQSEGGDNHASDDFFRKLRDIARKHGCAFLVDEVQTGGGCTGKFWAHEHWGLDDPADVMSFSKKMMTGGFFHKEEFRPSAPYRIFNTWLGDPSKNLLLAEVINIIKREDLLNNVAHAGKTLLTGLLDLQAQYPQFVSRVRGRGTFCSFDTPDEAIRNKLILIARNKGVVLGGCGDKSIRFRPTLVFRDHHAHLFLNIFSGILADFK

Rattus norvegicus [18] = test: Number of rats protected at a dose of 30 mg/Kg when given oral at 4 hr upon maximal electroshock seizure; Total number of rats = 4; format: functional
Mus musculus [19] = test: Post treatment activity score for CNS study using a actophotometer at a dose of 100 mg/Kg after 1 hr when given i.p., in mice (No. of animals 6); Control (24h before) 217
Rattus norvegicus [20] = test: Enzymatic activity to assess the increase in level of SGPT at a dose of 30 mg/Kg for 14 days when given p.o., in 6 rats; Control 45.0; format: functional
Rattus norvegicus [21] = test: Seizure score after administration in rat 2 at dose 130 mg/Kg when given i.p., upon preliminary hippocampal-kindling screen; format: functional, Hippocampus
[22] = biological target: 4-aminobutyrate aminotransferase, mitochondrial (Rattus norvegicus) (UniProt P50554); test: In vitro percentage inhibition activity against GABA-T enzyme at a concentration of 1.25 uM after 3 h
Mus musculus [23] = test: Minimum dose required for anticonvulsant activity when given i.p., at 2 hr in mice upon subcutaneous strychnine seizure; format: functional
Rattus norvegicus [24] = organism: Rattus norvegicus; test: Ex vitro percentage inhibition activity against GABA-T enzyme at a concentration of 2.5 uM after 3 h; format: functional
Rattus norvegicus [25] = test: Seizure score before administration in rat 2 at dose 130 mg/Kg when given i.p., upon preliminary hippocampal-kindling screen; format: functional, Hippocampus
Mus musculus [26] = test: Minimum dose required for anticonvulsant activity when given i.p., at 4 hr in mice upon maximal electroshock seizure; format: functional
Rattus norvegicus [27] = organism: Rattus norvegicus; test: Protective index between effective dose and toxic dose in rat; format: functional
Rattus norvegicus [28] = test: After discharge duration time when before administered in rat 2 at dose 130 mg/Kg when given i.p., upon preliminary hippocampal-kindling screen; Prodrug time 30-39 s; format: functional, Hippocampus
Mus musculus [29] = test: Post treatment activity score for CNS study using a actophotometer at a dose of 100 mg/Kg after 0.5 hr when given i.p., in mice (No. of animals 6); Control (24h before) 217
Rattus norvegicus [30] = test: Seizure score after administration in rat 1 at dose 130 mg/Kg when given i.p., upon preliminary hippocampal-kindling screen; format: functional, Hippocampus
[31] = biological target: 4-aminobutyrate aminotransferase, mitochondrial (Rattus norvegicus) (UniProt P50554); test: In vitro percentage inhibition activity against GABA-T enzyme at a concentration of 1.25 uM after 6 h
Rattus norvegicus [32] = organism: Rattus norvegicus; test: Ex vitro percentage inhibition activity against GABA-T enzyme at a concentration of 2.5 uM after 4.5 h; format: functional
Rattus norvegicus [33] = test: Toxic dose observed for anticonvulsant activity when given orally at 4 h in rat upon neurotoxicity seizure; format: functional; conditions: po
Rattus norvegicus [34] = test: Seizure score before administration in rat 1 at dose 130 mg/Kg when given i.p., upon preliminary hippocampal-kindling screen; format: functional, Hippocampus

Cc1cccc(C)c1NC(=O)N/N=C/c1ccccc1O
Activity (Rattus norvegicus [1]): 3
Activity (Mus musculus [2]): 191
SGOT activity (Rattus norvegicus [3]): 64.8 units/mL
Activity (Rattus norvegicus [4]): 4
PTZ seizure (Mus musculus [5]): 300 mg/kg
STY seizure (Mus musculus [6]): 30 mg/kg
Inhibition (Rattus norvegicus [7]): 0%
Activity (Rattus norvegicus [8]): 110 ug/100mg of tissue
ADD (Rattus norvegicus [9]): 25 s
ADD (Rattus norvegicus [10]): 39 s
Activity (Rattus norvegicus [11]): 1
ED50 (Rattus norvegicus [12]): 19.8 mg/kg
ADD (Rattus norvegicus [13]): 59 s
Activity (Rattus norvegicus [14]): 3
MES (Mus musculus [15]): 100 mg/kg
Activity (Rattus norvegicus [16]): 92.1 ug/100mg of tissue
inhibition [17]: 0%
Activity (Rattus norvegicus [18]): 4
Activity (Mus musculus [19]): 135
SGPT activity (Rattus norvegicus [20]): 43.3 units/mL
Score (Rattus norvegicus [21]): 1
inhibition [22]: 58%
STY seizure (Mus musculus [23]): 100 mg/kg
Inhibition (Rattus norvegicus [24]): 90%
Score (Rattus norvegicus [25]): 5
MES (Mus musculus [26]): 300 mg/kg
PI (Rattus norvegicus [27]): >25.1
ADD (Rattus norvegicus [28]): 39 s
Activity (Mus musculus [29]): 155
Score (Rattus norvegicus [30]): 1
inhibition [31]: 9%
Inhibition (Rattus norvegicus [32]): 43%
TD50 (Rattus norvegicus [33]): > 500 mg/kg
Score (Rattus norvegicus [34]): 5
